Molecules are shown by their SMILES. ≈ marks a conversion by molar mass, not a printed value.

What all share (type): functional
Assay [1] concerns Streptococcus pneumoniae. Kind of assay: Antibacterial activity against erythromycin-resistant Streptococcus pneumoniae 673 by broth microdilution method.
In assay [2] the test system is Streptococcus pneumoniae. Kind of assay: Antibacterial activity against erythromycin-resistant Streptococcus pneumoniae 5158 by broth microdilution method. In general terms: Dilution methods test growth across graded concentrations, often in twofold steps.
In assay [3] the test system is Streptococcus pneumoniae. Kind of assay: Antibacterial activity against erythromycin-susceptible Streptococcus pneumoniae 2860 by broth microdilution method.
For assay [4], the system named is Streptococcus pneumoniae. Kind of assay: Antibacterial activity against erythromycin-resistant Streptococcus pneumoniae 1210 by broth microdilution method.
Assay [5] concerns Staphylococcus aureus. Kind of assay: Antibacterial activity against erythromycin-resistant Staphylococcus aureus AD-08 by broth microdilution method.
For assay [6], the system named is Staphylococcus aureus. Kind of assay: Antibacterial activity against erythromycin-resistant Staphylococcus aureus 5677 by broth microdilution method.
In assay [7] the test system is Staphylococcus aureus. Kind of assay: Antibacterial activity against erythromycin-resistant Staphylococcus aureus 5676 by broth microdilution method.
For assay [8], the system named is Staphylococcus aureus. Kind of assay: Antibacterial activity against erythromycin-susceptible Staphylococcus aureus 26001 by broth microdilution method.
The subject of assay [9] is Staphylococcus aureus. Kind of assay: Antibacterial activity against erythromycin-susceptible Staphylococcus aureus ATCC 6538p by broth microdilution method.
Assay [10] relates to Staphylococcus aureus. Kind of assay: Antibacterial activity against erythromycin-susceptible Staphylococcus aureus ATCC 29213 by broth microdilution method.
For assay [11], the system named is Haemophilus influenzae. Kind of assay: Antibacterial activity against erythromycin-resistant Haemophilus influenzae 2412 by broth microdilution method.
Assay [12] concerns Haemophilus influenzae. Kind of assay: Antibacterial activity against erythromycin-susceptible Haemophilus influenzae 5096 by broth microdilution method.

In the case of `CC[C@H]1OC(=O)[C@H](C)C(=O)[C@H](C)[C@@H](O[C@@H]2O[C@H](C)C[C@H](N(C)C)[C@H]2O)[C@](C)(OC)C[C@@H](C)C(=O)[C@H](C)[C@@H](O)C12C=NNC2C(=O)OC` (some centres not stated), the MIC in [1] is 8 µg/mL (≈ 11.9 µM); in assay [2], 8 µg/mL (≈ 11.9 µM); in [3], 0.5 µg/mL (≈ 0.746 µM); in assay [4], greater than 64 µg/mL; in assay [5], 256 µg/mL (≈ 382 µM); in assay [6] it was 4 µg/mL (≈ 5.97 µM). For the same compound, the MIC is 4 µg/mL (≈ 5.97 µM) in assay [7]; 0.03 µg/mL (≈ 0.0448 µM) in assay [8]; 0.12 µg/mL (≈ 0.179 µM) in assay [9]; 0.12 µg/mL (≈ 0.179 µM) in [10]; greater than 8 µg/mL in assay [11]; 0.06 µg/mL (≈ 0.0896 µM) in assay [12].
For the compound `CC[C@H]1OC(=O)[C@H](C)C(=O)[C@H](C)[C@@H](O[C@@H]2O[C@H](C)C[C@H](N(C)C)[C@H]2O)[C@](C)(OC)C[C@@H](C)C(=O)[C@H](C)[C@@H](O)C12C=NNC2C` (some centres not stated), the MIC in assay [1] is greater than 64 µg/mL; in assay [2], greater than 64 µg/mL; in assay [3] it was 0.5 µg/mL (≈ 0.799 µM); in assay [4], greater than 64 µg/mL; in [5], 512 µg/mL (≈ 818 µM); in assay [6] it was 8 µg/mL (≈ 12.8 µM). The MIC in [7] is 8 µg/mL (≈ 12.8 µM); in [8], 0.12 µg/mL (≈ 0.192 µM); in assay [9] it was 0.25 µg/mL (≈ 0.399 µM); in [10] it was 0.5 µg/mL (≈ 0.799 µM); in assay [11] it was greater than 8 µg/mL; in assay [12], 0.06 µg/mL (≈ 0.0959 µM).
Turning to `CC[C@H]1OC(=O)[C@H](C)C(=O)[C@H](C)[C@@H](O[C@@H]2O[C@H](C)C[C@H](N(C)C)[C@H]2O)[C@@](C)(OC)C[C@@H](C)C(=O)[C@H](C)[C@@H](O)C12C=NNC2` (some centres not stated), the MIC is greater than 64 µg/mL in assay [1]; greater than 64 µg/mL in assay [2]; 0.5 µg/mL (≈ 0.817 µM) in [3]; greater than 64 µg/mL in [4]; 512 µg/mL (≈ 837 µM) in assay [5]; 8 µg/mL (≈ 13.1 µM) in assay [6]. Moreover, the MIC is 4 µg/mL (≈ 6.54 µM) in assay [7]; 0.12 µg/mL (≈ 0.196 µM) in assay [8]; 0.25 µg/mL (≈ 0.409 µM) in assay [9]; 0.25 µg/mL (≈ 0.409 µM) in [10]; greater than 8 µg/mL in assay [11]; 0.06 µg/mL (≈ 0.0981 µM) in [12].
For `CC[C@H]1OC(=O)[C@H](C)[C@@H](O[C@H]2C[C@@](C)(OC)[C@@H](O)[C@H](C)O2)[C@H](C)[C@@H](O[C@@H]2O[C@H](C)C[C@H](N(C)C)[C@H]2O)[C@](C)(O)C[C@@H](C)C(=O)[C@H](C)[C@@H](O)[C@]1(C)O` [ERYTHROMYCIN], the MIC was greater than 32 µg/mL in [1]; greater than 32 µg/mL in assay [2]; 0.25 µg/mL (≈ 0.341 µM) in assay [3]; greater than 32 µg/mL in [4]; greater than 1020 µg/mL in assay [5]; greater than 1020 µg/mL in assay [6]. For the same compound, the MIC was greater than 1020 µg/mL in assay [7]; no more than 0.063 µg/mL in assay [8]; 0.5 µg/mL (≈ 0.681 µM) in [9]; 0.5 µg/mL (≈ 0.681 µM) in [10]; 4 µg/mL (≈ 5.45 µM) in assay [11]; 0.06 µg/mL (≈ 0.0818 µM) in assay [12].
On to `CCOC(=O)C1NN=CC12[C@H](O)[C@@H](C)C(=O)[C@H](C)C[C@@](C)(OC)[C@H](O[C@@H]1O[C@H](C)C[C@H](N(C)C)[C@H]1O)[C@@H](C)C(=O)[C@@H](C)C(=O)O[C@@H]2CC` (some centres not stated), for which the MIC in [1] is 8 µg/mL (≈ 11.7 µM); in assay [2], 8 µg/mL (≈ 11.7 µM); in assay [3] it was 0.5 µg/mL (≈ 0.731 µM); in [4], greater than 64 µg/mL; in [5] it was 512 µg/mL (≈ 749 µM); in assay [6], 8 µg/mL (≈ 11.7 µM). In addition, the MIC in assay [7] was 8 µg/mL (≈ 11.7 µM); in assay [8] it was 0.12 µg/mL (≈ 0.175 µM); in assay [9], 0.12 µg/mL (≈ 0.175 µM); in [10], 0.12 µg/mL (≈ 0.175 µM); in assay [11] it was greater than 8 µg/mL; in [12] it was 0.06 µg/mL (≈ 0.0877 µM).
Consider `CC[C@H]1OC(=O)[C@H](C)[C@@H](O[C@H]2C[C@@](C)(OC)[C@@H](O)[C@H](C)O2)[C@H](C)[C@@H](O[C@@H]2O[C@H](C)C[C@H](N(C)C)[C@H]2O)[C@](C)(OC)C[C@@H](C)C(=O)[C@H](C)[C@@H](O)[C@]1(C)O` [CLARITHROMYCIN], for which the MIC is greater than 16 µg/mL in assay [1]; greater than 16 µg/mL in assay [2]; 0.125 µg/mL (≈ 0.167 µM) in assay [3]; greater than 16 µg/mL in assay [4]; greater than 1020 µg/mL in assay [5]; greater than 1020 µg/mL in assay [6]. Further, the MIC was greater than 1020 µg/mL in assay [7]; no more than 0.063 µg/mL in assay [8]; 0.5 µg/mL (≈ 0.668 µM) in assay [9]; 0.25 µg/mL (≈ 0.334 µM) in [10]; 8 µg/mL (≈ 10.7 µM) in assay [11]; 0.06 µg/mL (≈ 0.0802 µM) in [12].

For the origin of these results see ChEMBL document CHEMBL1629523, “Synthesis and antibacterial activity of C-12 pyrazolinyl spiro ketolides” (2010).
